The results in this text go back to BindingDB's records for doi:10.1016/j.ejmech.2018.12.019 (Rheinische Friedrich-Wilhelms-University of Bonn, 2019).

The nature of series [1]: Inhibition of ABCG2 (unknown origin) expressed in MDCK2 cells co-expressing BCRP (unknown origin) assessed as potentiation of SN-38-induced cytotoxicity measured after 72 hrs by MTT assay.
In series [2] the target is ATP-dependent translocase ABCB1 (Homo sapiens, UniProt P08183). Nature of the series: Inhibition of ABCB1 in human A2780/ADR cells assessed as potentiation of daunorubicin-induced cytotoxicity measured after 72 hrs by MTT assay. A general note: Tetrazolium assays rely on reduction of a dye to a coloured formazan, in cell work by metabolically active cells.
Chain of ATP-dependent translocase ABCB1 (P08183 whole entry): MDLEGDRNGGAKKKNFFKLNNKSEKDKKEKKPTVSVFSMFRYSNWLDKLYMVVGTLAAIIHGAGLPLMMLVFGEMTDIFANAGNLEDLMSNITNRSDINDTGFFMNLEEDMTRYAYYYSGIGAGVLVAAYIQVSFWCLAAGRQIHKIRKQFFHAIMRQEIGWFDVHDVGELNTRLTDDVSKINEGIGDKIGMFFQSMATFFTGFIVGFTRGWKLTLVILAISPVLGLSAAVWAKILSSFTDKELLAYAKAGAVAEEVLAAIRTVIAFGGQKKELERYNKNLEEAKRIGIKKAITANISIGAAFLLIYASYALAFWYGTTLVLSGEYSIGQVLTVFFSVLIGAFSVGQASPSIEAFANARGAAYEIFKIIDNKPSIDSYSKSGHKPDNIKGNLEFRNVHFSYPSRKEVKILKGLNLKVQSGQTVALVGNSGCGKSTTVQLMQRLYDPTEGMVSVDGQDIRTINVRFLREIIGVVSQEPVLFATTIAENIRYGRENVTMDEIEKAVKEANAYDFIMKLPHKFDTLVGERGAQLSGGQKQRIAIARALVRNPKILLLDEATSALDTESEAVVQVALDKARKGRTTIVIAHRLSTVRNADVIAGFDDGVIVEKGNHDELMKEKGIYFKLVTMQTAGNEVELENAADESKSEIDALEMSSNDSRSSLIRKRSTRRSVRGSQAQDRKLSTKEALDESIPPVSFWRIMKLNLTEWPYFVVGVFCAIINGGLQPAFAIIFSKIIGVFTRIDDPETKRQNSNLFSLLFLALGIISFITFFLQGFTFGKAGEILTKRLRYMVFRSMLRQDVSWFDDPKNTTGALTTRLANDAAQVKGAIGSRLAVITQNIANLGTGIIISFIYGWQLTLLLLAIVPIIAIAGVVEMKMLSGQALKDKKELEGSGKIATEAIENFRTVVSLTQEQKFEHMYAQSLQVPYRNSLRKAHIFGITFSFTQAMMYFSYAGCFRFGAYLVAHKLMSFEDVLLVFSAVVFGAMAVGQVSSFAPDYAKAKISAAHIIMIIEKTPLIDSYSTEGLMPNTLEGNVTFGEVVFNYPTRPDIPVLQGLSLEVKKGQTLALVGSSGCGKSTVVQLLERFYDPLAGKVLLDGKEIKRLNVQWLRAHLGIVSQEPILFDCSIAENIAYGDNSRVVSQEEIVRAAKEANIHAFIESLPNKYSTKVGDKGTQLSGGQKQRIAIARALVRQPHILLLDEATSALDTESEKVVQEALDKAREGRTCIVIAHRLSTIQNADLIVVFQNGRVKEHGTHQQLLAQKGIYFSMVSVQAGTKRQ
The target of series [3] is T1, Broad substrate specificity ATP-binding cassette transporter ABCG2 (Homo sapiens, UniProt Q9UNQ0).
T1 sequence (Q9UNQ0 whole entry): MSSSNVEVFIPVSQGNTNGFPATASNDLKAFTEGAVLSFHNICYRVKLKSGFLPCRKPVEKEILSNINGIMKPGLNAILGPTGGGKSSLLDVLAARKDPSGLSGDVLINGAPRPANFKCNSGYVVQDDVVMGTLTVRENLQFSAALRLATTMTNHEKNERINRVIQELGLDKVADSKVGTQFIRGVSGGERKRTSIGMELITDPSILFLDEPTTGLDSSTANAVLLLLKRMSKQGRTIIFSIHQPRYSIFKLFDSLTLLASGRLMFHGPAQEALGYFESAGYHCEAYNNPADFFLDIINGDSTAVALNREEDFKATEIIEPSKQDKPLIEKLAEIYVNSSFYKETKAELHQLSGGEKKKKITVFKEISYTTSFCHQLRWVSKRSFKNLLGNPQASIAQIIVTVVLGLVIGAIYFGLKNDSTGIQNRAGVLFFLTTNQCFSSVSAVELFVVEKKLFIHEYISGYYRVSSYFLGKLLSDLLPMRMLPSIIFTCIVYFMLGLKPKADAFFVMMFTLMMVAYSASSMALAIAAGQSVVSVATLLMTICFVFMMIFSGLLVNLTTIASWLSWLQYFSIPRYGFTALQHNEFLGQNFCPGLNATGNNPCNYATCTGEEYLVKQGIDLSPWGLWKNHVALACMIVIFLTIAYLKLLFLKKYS
Nature of the series: Inhibition of ABCG2 (unknown origin) expressed in MDCK2 cells co-expressing BCRP (unknown origin) assessed as potentiation of SN-38-induced cytotoxicity measured after 72 hrs by MTT assay.

Series [4] in a line: Inhibition of ABCB1 in human A2780/ADR cells assessed as potentiation of daunorubicin-induced cytotoxicity measured after 72 hrs by MTT assay.

As a reminder, the EC50 is the concentration at which the effect is half-maximal.

Consider `COc1ccc(NC(=O)COc2ccc(C(=O)/C=C/c3c(F)cccc3F)cc2)cc1OC`, for which the EC50 in series [1] was determined as 448 nM.
Turning to `CC(=O)Nc1cccc(-n2c(=O)n(C3CC3)c(=O)c3c(Nc4ccc(I)cc4F)n(C)c(=O)c(C)c32)c1` [CHEBI:75998], the EC50 in series [2] came out at 247 nM.
For `COc1ccc(-c2c(OCC(=O)Nc3cccc4ccccc34)oc3ccccc3c2=O)cc1`, the EC50 in series [1] turned out to be 793 nM.
As for `COc1cc(/C=C/C(=O)c2ccc(OCC(=O)NCc3ccc4c(c3)OCO4)cc2)cc(OC)c1OC`, the EC50 in series [1] came out at 989 nM.
For the compound `COc1cccc(/C=C/C(=O)c2ccc(OCC(=O)Nc3ccc(OC)c(OC)c3)cc2)c1`, the EC50 in series [1] was 1390 nM.
For `Cc1cc(Nc2ncc(Cl)c(Nc3ccccc3S(=O)(=O)C(C)C)n2)c(OC(C)C)cc1C1CCNCC1`, the EC50 in series [2] amounted to 89 nM.
On to `COc1cc2ncnc(Nc3ccc(O)c(Br)c3)c2cc1OC` [WHI-P154], for which the EC50 in series [3] is 189 nM; in series [4], 3080 nM.
On to `O=C(COc1c(-c2ccccc2Cl)oc2ccccc2c1=O)Nc1ccc2c(c1)COC2=O`, for which the EC50 in series [4] was found to be 9900 nM; in series [1], 1220 nM.
With `CCCOc1ccc(/C=C/C(=O)c2ccc(O)cc2)cc1`, in series [1], the EC50 stood at 1250 nM.
The same measure, in the same setting: to `COc1ccc(NC(=O)COc2ccc(C(=O)/C=C/c3cc(OC)c(OC)c(OC)c3)cc2)cc1OC` belongs 107 nM.
`Cc1ccc(-c2c(OCC(=O)Nc3cccc4ccccc34)oc3ccccc3c2=O)cc1`: in series [4], the EC50 was 5010 nM.
For `CN1CCN(c2cccc(Nc3nc4c(-c5ccc(S(C)(=O)=O)cc5)cccn4n3)c2)CC1`, in series [2], the EC50 is 202 nM.
Consider `C[C@]1(O)C[C@@H](c2nc(-c3ccc4ccc(-c5ccccc5)nc4c3)c3c(N)nccn32)C1` [(1s,3s)-3-(8-amino-1-(2-phenylquinolin-7-yl)imidazo[1,5-a]pyrazin-3-yl)-1-methylcyclobutanol], for which the EC50 in series [3] was 104 nM; in series [4], 2090 nM.
Consider `O=C(COc1cccc(C(=O)/C=C/c2ccccc2)c1)Nc1ccc2c(c1)COC2=O`, for which the EC50 in series [1] was found to be 1170 nM.
On to `COc1ccc(-c2c(OCC(=O)Nc3cccc4ccccc34)oc3ccccc3c2=O)cc1OC`, for which the results for the EC50 in series [4] and in series [1] were 3120 nM and 446 nM, respectively.
For `COc1cc(C(=O)/C=C/c2cc(OC)c(OC)c(OC)c2)ccc1O`, the EC50 in series [1] was 512 nM.
For `COC(=O)c1ccc2c(c1)NC(=O)/C2=C(\Nc1ccc(N(C)C(=O)CN2CCN(C)CC2)cc1)c1ccccc1` [BIBF-1120], the concentration giving a half-maximal response (EC50) in series [2] is 276 nM.
Still for that read-out and setting: as for `Cc1ccc(-n2nc(C(C)(C)C)cc2NC(=O)Nc2ccc(OCCN3CCOCC3)c3ccccc23)cc1` [1-[5-tert-butyl-2-(p-tolyl)pyrazol-3-yl]-3-[4-(2-morpholinoethoxy)-1-naphthyl]urea], the figure is 524 nM.
